Measured values reported in patent publication US9179674B2, “Macrocyclic picolinamide compounds with fungicidal activity” (DOW AGROSCIENCES LLC, priority 2013, dated 2015).
Where two headings read alike, the source gives them in different places.

Assays:
Puccinia triticina = assay: Wheat Brown Rust fungicidal activity (PUCCRT); assay type: in vivo; details: rate 100 ppm; for pest or weed control at 100 ppm: Puccinia triticina
Method: Technical grades of materials were dissolved in acetone, which were then mixed with nine volumes of water containing 110 ppm Triton X-100. The fungicide solutions were applied onto wheat seedlings using an automated booth sprayer to run-off. All sprayed plants were allowed to air dry prior to further handling. All fungicides were evaluated using the aforementioned method for their activity vs. all target diseases. Wheat leaf blotch and brown rust activity were also evaluated using track spray applications, in which case the fungicides were formulated as EC formulations, containing 0.1% Trycol 5941 in the spray solutions. Wheat plants (variety Yuma) were grown from seed in a greenhouse in 50% mineral soil/50% soil-less Metro mix until the first leaf was fully emerged, with 7-10 seedlings per pot. These plants were inoculated with an aqueous spore suspension of Septoria tritici either prior to or after fungicide treatments. After inoculation the plants were kept in 100% relative humidity (one day in a dark dew chamber followed by two to three days in a lighted dew chamber at 20° C.) to permit spores to germinate and infect the leaf. The plants were then transferred to a greenhouse set at 20° C. for disease to develop. When disease symptoms were fully expressed on the 1st leaves of untreated plants, infection levels were assessed on a scale of 0 to 100 percent disease severity. Percent disease control was calculated using the ratio of disease severity on treated plants relative to untreated plants. Evaluation of Fungicidal Activity: Wheat Brown Rust (Puccinia triticina; Synonym: Puccinia recondite f sp. tritici; Bayer code PUCCRT) Wheat plants (variety Yuma) were grown from seed in a greenhouse in 50% mineral soil/50% soil-less Metro mix until the first leaf was fully emerged, with 7-10 seedlings per pot. These plants were inoculated with an aqueous spore suspension of Puccinia triticina either prior to or after fungicide treatments. After inoculation the plants were kept in a dark dew room at 22° C. with 100% relative humidity overnight to permit spores to germinate and infect the leaf. The plants were then transferred to a greenhouse set at 24° C. for disease to develop. Fungicide formulation, application and disease assessment followed the procedures as described in the Example A.

[1] = tested on: Mycosphaerella graminicola; Anamorph: Septoria tritici; assay: Leaf Blotch of Wheat fungicidal activity (SEPTTR); assay type: in vivo; details: rate 100 ppm; for pest or weed control at 100 ppm: Zymoseptoria tritici
Method: Evaluation of Fungicidal Activity: Leaf Blotch of Wheat (Mycosphaerella graminicola; Anamorph: Septoria tritici; Bayer code […]) Technical grades of materials were dissolved in acetone, which were then mixed with nine volumes of water containing 110 ppm Triton X-100. The fungicide solutions were applied onto wheat seedlings using an automated booth sprayer to run-off. All sprayed plants were allowed to air dry prior to further handling. All fungicides were evaluated using the aforementioned method for their activity vs. all target diseases. Wheat leaf blotch and brown rust activity were also evaluated using track spray applications, in which case the fungicides were formulated as EC formulations, containing 0.1% Trycol 5941 in the spray solutions. Wheat plants (variety Yuma) were grown from seed in a greenhouse in 50% mineral soil/50% soil-less Metro mix until the first leaf was fully emerged, with 7-10 seedlings per pot. These plants were inoculated with an aqueous spore suspension of Septoria tritici either prior to or after fungicide treatments. After inoculation the plants were kept in 100% relative humidity (one day in a dark dew chamber followed by two to three days in a lighted dew chamber at 20° C.) to permit spores to germinate and infect the leaf. The plants were then transferred to a greenhouse set at 20° C. for disease to develop. When disease symptoms were fully expressed on the 1st leaves of untreated plants, infection levels were assessed on a scale of 0 to 100 percent disease severity. Percent disease control was calculated using the ratio of disease severity on treated plants relative to untreated plants.

[2] = 24 h, 1 Day Protectant, read-out: Disease control PUCCRT 1DP
[3] = 72 h, 3 Day Curative, read-out: Disease control PUCCRT 3DC
[4] = 24 h, 1 Day Protectant, read-out: Disease control SEPTTR 1DP
[5] = 72 h, 3 Day Curative, read-out: Disease control SEPTTR 3DC

SMILES	pest or weed control at 100 ppm (Puccinia triticina; [2])	pest or weed control at 100 ppm (Puccinia triticina; [3])	pest or weed control at 100 ppm [1, 4]	pest or weed control at 100 ppm [1, 5]	Disease control PUCCRT 1DP (Puccinia triticina; 1 Day Protectant)	Disease control SEPTTR 1DP ([1]; 1 Day Protectant)	Disease control SEPTTR 3DC ([1]; 3 Day Curative)
COc1ccnc(C(=O)N[C@H]2COC[C@H](CCc3ccccc3)[C@@H](OC(=O)C3CC3)[C@H](C)OC2=O)c1O [Compound F15]	80 to 100%	0 to 80%	80 to 100%	80 to 100%			
COc1ccnc(C(=O)N[C@H]2COC[C@H](CCc3ccccc3)[C@@H](Oc3ccc(C)cc3)[C@H](C)OC2=O)c1O [Compound F16]	80 to 100%	0 to 80%	80 to 100%	0 to 80%			
COc1ccnc(C(=O)N[C@H]2COC[C@H](Cc3ccc(F)cc3)[C@@H](OCCCC(F)(F)F)[C@H](C)OC2=O)c1O [Compound F17]	80 to 100%	0 to 80%	80 to 100%	80 to 100%			
COc1ccnc(C(=O)N[C@H]2COC[C@H](Cc3ccc(F)cc3)[C@@H](OC3CCCC3)[C@H](C)OC2=O)c1O [Compound F18]	80 to 100%	80 to 100%	80 to 100%	0 to 80%			
CCCCCO[C@@H]1[C@@H](Cc2ccc(F)cc2)COC[C@H](NC(=O)c2nccc(OC)c2O)C(=O)O[C@H]1C [Compound F19]	80 to 100%	80 to 100%	80 to 100%	80 to 100%			
COc1ccnc(C(=O)N[C@H]2COC[C@H](Cc3ccc(F)cc3)[C@@H](OCC(C)C)[C@H](C)OC2=O)c1O [Compound F21]	80 to 100%	80 to 100%	80 to 100%	80 to 100%			
COc1ccnc(C(=O)N[C@H]2COC[C@H](Cc3ccc(C)cc3)[C@@H](OC(=O)C3CC3)[C@H](C)OC2=O)c1O [Compound F22]	0 to 80%	0 to 80%		0 to 80%			
COc1ccnc(C(=O)N[C@H]2COC[C@H](Cc3ccc(C)cc3)[C@@H](OCCCC(F)(F)F)[C@H](C)OC2=O)c1O [Compound F23]	80 to 100%	0 to 80%	80 to 100%	0 to 80%			
COc1ccnc(C(=O)N[C@H]2COC[C@H](Cc3ccc(C)cc3)[C@@H](Oc3ccccc3)[C@H](C)OC2=O)c1O [Compound F24]	80 to 100%	0 to 80%	80 to 100%	0 to 80%			
COc1ccnc(C(=O)N[C@H]2COC[C@H](Cc3ccc(C)cc3)[C@@H](OC3CCCC3)[C@H](C)OC2=O)c1O [Compound F25]	80 to 100%	0 to 80%	80 to 100%	80 to 100%			
COc1ccnc(C(=O)N[C@H]2COC[C@H](Cc3ccc(C(F)(F)F)cc3)[C@@H](OC(=O)C3CC3)[C@H](C)OC2=O)c1O [Compound F26]	0 to 80%		80 to 100%	0 to 80%			
COc1ccnc(C(=O)N[C@H]2COC[C@H](Cc3ccc(C(F)(F)F)cc3)[C@@H](OCC(C)C)[C@H](C)OC2=O)c1O [Compound F27]	80 to 100%	0 to 80%	80 to 100%	0 to 80%			
COc1ccnc(C(=O)N[C@H]2COC[C@H](Cc3ccc(C(F)(F)F)cc3)[C@@H](OC3CCCC3)[C@H](C)OC2=O)c1O [Compound F28]	80 to 100%	0 to 80%	80 to 100%	0 to 80%			
CCCO[C@@H]1[C@@H](Cc2ccc(C(F)(F)F)cc2)COC[C@H](NC(=O)c2nccc(OC)c2O)C(=O)O[C@H]1C [Compound F29]	80 to 100%	0 to 80%	80 to 100%	80 to 100%			
COc1ccnc(C(=O)N[C@H]2COC[C@H](Cc3ccc(C(F)(F)F)cc3)[C@@H](OCC(C)C)[C@H](C)OC2=O)c1O [Compound F30]					A (80-100)	A (80-100)	B (More than 0-Less than 80)
CCCCCO[C@@H]1[C@@H](Cc2ccc(C(F)(F)F)cc2)COC[C@H](NC(=O)c2nccc(OC)c2O)C(=O)O[C@H]1C [Compound F31]	0 to 80%		80 to 100%	0 to 80%			
COc1ccnc(C(=O)N[C@H]2COC[C@H](CC(F)(F)F)[C@@H](OCC(C)C)[C@H](C)OC2=O)c1O [Compound F32]	80 to 100%	0 to 80%	80 to 100%	0 to 80%			
COc1ccnc(C(=O)N[C@H]2COC[C@H](CC(F)(F)F)[C@@H](OC3CCCC3)[C@H](C)OC2=O)c1O [Compound F33]	0 to 80%		80 to 100%	0 to 80%			
COc1ccnc(C(=O)N[C@H]2COC[C@H](CCC(C)C)[C@@H](OCC(C)C)[C@H](C)OC2=O)c1O [Compound F34]	80 to 100%	80 to 100%	80 to 100%	80 to 100%			
COc1ccnc(C(=O)N[C@H]2COC[C@H](CCC(C)C)[C@@H](OCCCC(F)(F)F)[C@H](C)OC2=O)c1O [Compound F35]	80 to 100%		80 to 100%	0 to 80%			
COc1ccnc(C(=O)N[C@H]2COC[C@H](CCC(C)C)[C@@H](OC(=O)C3CC3)[C@H](C)OC2=O)c1O [Compound F36]	80 to 100%	0 to 80%	80 to 100%	80 to 100%			
COc1ccnc(C(=O)N[C@H]2COC[C@H](CCC(C)C)[C@@H](Oc3ccc(C)cc3)[C@H](C)OC2=O)c1O [Compound F37]	80 to 100%	0 to 80%	80 to 100%	80 to 100%			
CCCO[C@@H]1[C@@H](CCC(C)C)COC[C@H](NC(=O)c2nccc(OC)c2O)C(=O)O[C@H]1C [Compound F38]	80 to 100%	80 to 100%	80 to 100%	80 to 100%			
COc1ccnc(C(=O)N[C@H]2COC[C@H](CCC(C)C)[C@@H](OC3CCCC3)[C@H](C)OC2=O)c1O [Compound F39]	80 to 100%	80 to 100%	80 to 100%	80 to 100%			
COc1ccnc(C(=O)N[C@H]2COC[C@H](Cc3cc(F)c(F)c(F)c3)[C@@H](OCC(C)C)[C@H](C)OC2=O)c1O [Compound F40]	0 to 80%		80 to 100%	80 to 100%			
COc1ccnc(C(=O)N[C@H]2COC[C@H](Cc3ccc(C)cc3)[C@@H](OCC(C)C)[C@H](C)OC2=O)c1O [Compound F48, 3-hydroxy-N-((3S,7S,8R,9S)-8-isobutoxy-9-methyl-7-(4-methylbenzyl)-2-oxo-1,5-dioxonan-3-yl)-4-methoxypicolinamide]	80 to 100%	80 to 100%	80 to 100%	0 to 80%			
